Test results taken from patent US12012390B2, “Flavone compounds for the treatment and prophylaxis of hepatitis B virus disease” (priority 2018, dated 2024).

Columns and labels:
[1] = tested on: HBV in primary human hepatocytes (PHH); test: Cryopreserved primary human hepatocytes (PHH) HBV infection assay; format: cell-based; settings: Hepatitis B virus, Hepatocyte, 216 h, HBV-infected cryopreserved PHH, 9 days post-compound treatment, extracellular HBsAg by CLIA; read-out: HBsAg IC50
Outline: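 Cryopreserved PHH (5.8×10^4 cells/well) were infected with 5.8×10^6 HBV genome equivalents in 4% PEG8000/1% DMSO medium. Extracellular HBsAg was measured by CLIA and HBV DNA by qPCR, with IC50 from 4-parameter logistic fits.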

[2] = tested on: HBeAg level (surrogate marker for cccDNA) in HepDES19 cells; test: Engineered HepDES19 primary screen assay (HBeAg as surrogate marker for cccDNA); format: cell-based, HBV; settings: Hepatitis B virus, HepDES19, 120 h, read-out: IC50 (HBeAg) in HepDES19 primary screen assay, HepDES19 cells, 5 days incubation with compound, HBeAg by ELISA
Outline: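 HepDES19 cells were induced by Tet withdrawal for 8 days, then exposed to half-log compound dilutions (1% DMSO) for 5 days at 37° C. HBeAg, a cccDNA surrogate, was measured by ELISA; viability by CCK-8. IC50 from 4-parameter logistic fit.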

Q: Which results are given for `O=C(O)C1CC(OCCOc2ccc(-c3cc(=O)c4cccc(Cl)c4o3)cc2)C1` (centres unmarked) [Example 1, 3-[2-[4-(8-chloro-4-oxo-chromen-2-yl)phenoxy]ethoxy]cyclobutanecarboxylic acid]?
A: IC50 [1]: 130 nM; IC50 [2]: 140 nM
